Assays:
HIAP1 mRNA [1] = test: HIAP1 mRNA in SF295 cells, basal conditions (TaqMan); assay type: cell-based, human; parameters: decrease of HIAP1 mRNA compared to mock or scrambled survivin control: concentration or dose not given beside the values; conditions: for HIAP1 mRNA levels (in words): SF295 cells (FIG. 21); for decrease of HIAP1 mRNA compared to mock or scrambled survivin control: SF295 cells, six hours after transfection
Experimental: RNA was extracted from cells lysed in RLT buffer (QIAGEN, Valencia, Calif.), and purified using QIAGEN RNeasy columns/kits. Real-time quantitative PCR was performed on a Perkin-Elmer ABI 7700 Prism PCR machine. RNA was reverse transcribed and amplified according to the TaqMan Universal PCR Master Mix protocol of PE Biosystems, using primers and probes designed to specifically recognize XIAP, HIAP1, survivin, or GAPDH. For human survivin, the forward primer was 5′-[…]-3′ (SEQ ID NO: 263), the reverse primer was 5′-GAAAGGAAAGCGCAACCG-3′ (SEQ ID NO: 264), and the probe was 5′-(FAM)[…](TAMRA)-3′ (SEQ ID NO: 265). For human HIAP1, the forward primer was 5′-[…]-3′ (SEQ ID NO: 266), the reverse primer was 5′-[…]-3′ (SEQ ID NO: 267), and the probe was 5′-(FAM)[…](TAMRA)-3′ (SEQ ID NO: 268). For human XIAP, the forward primer was 5′-[…]-3′ (SEQ ID NO: 269), the reverse primer was 5′-[…]-3′ (SEQ ID NO: 270), and the probe was 5′-(FAM)[…](TAMRA)-3′ (SEQ ID NO: 271). For human GAPDH, the forward primer was 5′-GAAGGTGAAGGTCGGAGTC-3′ (SEQ ID NO: 272), the reverse primer was 5′-GAAGATGGTGATGGGATTC-3′ (SEQ ID NO: 273), and the probe was 5′-(JOE)[…](TAMRA)-3′ (SEQ ID NO: 274). FAM is 6-carboxyfluoroscein, JOE is 6-carboxy-4,5-dichloro-2,7-dimethoxyfluoroscein, and TAMRA is 6-carboxy-N,N,N′,N′-tetramethylrhodamine. FAM and JOE are 5′ reporter dyes, while TAMRA is a 3′ quencher dye.
Relative quantification of gene expression was performed as described in the PE Biosystems manual using GAPDH as an internal standard. The comparative Ct (cycle threshold) method was used for relative quantitation of IAP mRNA levels compared to GAPDH mRNA levels. Briefly, real-time fluorescence measurements were taken at each PCR cycle and the threshold cycle (Ct) value for each sample was calculated by determining the point at which fluorescence exceeded a threshold limit of 30 times the baseline standard deviation. The average baseline value and the baseline SD are calculated starting from the third cycle baseline value and stopping at the baseline value three cycles before the signal starts to exponentially rise. The PCR primers and/or probes for the specific IAPs were designed to span at least one exon-intron boundary separated by 1 kb or more of genomic DNA, to reduce the possibility of amplifying and detecting genomic DNA contamination. The specificity of the signal, and possible contamination from DNA, were verified by treating some RNA samples with either DNase or RNase, prior to performing the reverse transcription and PCR reaction steps.
A library of 15 HIAP1 antisense nucleobase oligomers as oligonucleotides was screened for protein knock-down by western blot analysis and for RNA knock-down by TaqMan, using the primers and probes described in Example 3, above, under two different conditions. HIAP1 RNA levels may be detected using standard Northern blot analyses or RT-PCR techniques. The antisense oligonucleotides were administered to cells under basal conditions or under cycloheximide-induction conditions (24 hour treatment with sub-toxic doses). Cycloheximide (CHX) can lead to a 10- to 200-fold induction of HIAP1 mRNA depending on the cell line treated. […] This effect of CHX is via two distinct mechanisms of action. First, CHX activates NFkB, a known transcriptional inducer of HIAP1, by blocking the de novo synthesis of a labile protein, IkB, which is an inhibitor of NFkB. This effect is mimicked by puromycin, another protein synthesis inhibitor, and by TNF-alpha, which induces a signaling cascade leading to the phosphorylation, ubiquination, and degradation of IkB.
SF295 glioblastoma cells were transfected with lipofectin and oligonucleotide (scrambled survivin, no oligonucleotide, antisense APO 1 to APO 15) or left untreated. […]

HIAP1 protein = HIAP1 protein in cycloheximide-induced SF295 cells (western blot); assay type: cell-based, human
Text: HIAP1 was detected on a western immunoblot using an affinity-purified anti-rat HIAP1 rabbit polyclonal antibody as a primary antibody and was detected by ECL (Amersham) on X-ray film with a secondary horseradish-peroxidase-conjugated anti-rabbit Ig antibody and a chemiluminescent substrate. The anti-HIAP1 polyclonal antibody is raised against a GST-fusion of the rat HIAP1. This antibody cross-reacts with both human and murine HIAP1 and HIAP2.
(§1) The effect of HIAP1 antisense nucleobase oligomers on HIAP1 protein and mRNA expression was also examined in cells induced to express HIAP1. SF295 cells were transfected with oligonucleotides, or were mock transfected. The transfected cells were then treated with 10 μg/ml cycloheximide for 24 hours to induce 70 kDa HIAP1 mRNA and protein. Protein levels were measured by western blot analysis with an anti-HIAP1 polyclonal antibody, and normalized against actin protein in a re-probing of the same blots. The densitometric scan results were plotted against the mock results (set at 100%) in FIG. 22B. […] The transfection process itself (e.g., mock or scrambled survivin) induces HIAP1 protein compared to the untreated sample as shown on the western immunoblot.

[2] = system: MDA-MB-435/LCC6 human breast carcinoma xenografts; test: Systemic (i.p.) PS-oligonucleotides in LCC6 breast carcinoma xenografts; assay type: in vivo, female SCID-RAG2 mice; conditions: 12.5 mg/kg i.p.; day 35, two weeks after the last treatment
Experimental: Initial systemic PS-oligonucleotide studies were designed without any chemotherapeutic agents. SCID-RAG2 mice were inoculated with H460 human lung carcinoma cells (s.c. shoulder injection of 10^6 cells) and treatments with G4 and F3 AS PS-oligonucleotides, as well as a scrambled control, were initiated three days after tumor inoculation. Nucleobase oligomer injections were administered i.p. at 12.5 mg/kg three times a week for three weeks. At the end of the treatment period, mean tumor sizes in the groups treated with either G4 or F3 AS oligonucleotides were ˜50% smaller than in the group treated with a scrambled control oligonucleotides (FIG. 15). The same treatment protocol was tested on female SCID-RAG2 mice inoculated orthotopically with MDA-MB-435/LCC6 human breast carcinoma cells. Two weeks after the last treatment (day 35) tumor volumes of mice treated with F3, C5 or G4 AS oligonucleotides were 70%, 60%, and 45%, respectively, smaller than vehicle controls (FIG. 16).
Efficacy experiments were conducted in male RAG2 immunodeficient mice bearing NCI-H460 tumours or female RAG2 mice bearing LCC6 tumors. Treatments were commenced on day 3 after tumor inoculation. Saline (controls), G4 AS oligonucleotides (5 or 15 mg/kg), or G4 SC oligonucleotides (5 or 15 mg/kg) were administered i.p. daily for five doses a week over a three week regimen. Vinorelbine (VNB, 5 or 10 mg/kg) was administered i.v. via the tail vein, either alone or in combination with oligonucleotides, at day 3, 7, 11 and 17 after tumor inoculation. When oligonucleotides were administered in combination with VNB, the drug treatment was performed four hours after ODN treatment.

XIAP protein = XIAP protein knock-down in H460 cells (western blot, densitometry); assay type: cell-based, human
Experimental: FIGS. 3 and 4 are graphs showing the effects of 4×4 mixed backbone (MBO) FG8 or E12 oligonucleotides in amounts of 31 nM (FIG. 3) or 63 nM (FIG. 4). H460 lung carcinoma cells were transfected for 18 hours on one, two, or three consecutive days using 125 nM MBOs and Lipofectamine 2000. Samples for western analysis were harvested at the indicated time. Scanning densitometry was performed, and XIAP protein levels were normalized to GAPDH and compared to a mock control set to 100%. The indicated percentages express % XIAP protein knockdown versus specific scrambled controls.
One day prior to transfection, H460 cells were plated in 6- or 96-well tissue culture plates. Phosphorothioate antisense oligonucleotides were delivered into cells with Lipofectamine 2000 (Life Technologies) in the form of liposome-oligonucleotide complexes. Following a 4.5 or 6 h transfection, the transfection medium was replaced with RPMI medium containing 10% FBS, and the cells incubated for another 24 or 48 h.
The cells or tumor tissue samples were lysed with ice-cold lysis buffer (50 mM Tris, 150 mM NaCl, 2.5 mM EDTA, 0.1% SDS, 0.5% sodium deoxycholate, 1% NP-40, 0.02% sodium azide) containing protease inhibitors (Complete-Mini protease inhibitor tablets; Boehringer Mannheim GmBH, Mannheim, Germany). After incubation for 30 min on ice, samples were centrifuged at 10,000 rpm for 15 min, and stored at −20° C. Protein content in the lysed extracts was determined using a detergent-compatible Bio-Rad assay (Bio-Rad Labs, Hercules, Calif.). Equal amounts of protein (40 μg/lane) were separated on 12% SDS-polyacrylamide gels or 4-15% gradient SDS-polyacrylamide pre-made gels (Bio-Rad) and transferred to nitrocellulose membranes. Primary antibodies against XIAP, Bcl-2 (DAKO, Glostrup, Denmark), Bax (Sigma, St. Louis, Mo.), β-actin (Sigma), caspase-3 (BD PharMingen, San Diego, Calif.), and PARP (BD PharMingen) were used. The secondary antibody was the appropriate horseradish-conjugated anti-mouse or anti-rabbit IgG (Promega, Madison, Wis.). Proteins were detected by enhanced chemiluminescence (ECL; Amersham Pharmacia Biotech, Buckinghamshire, England) and visualized after exposure to Kodak autoradiography film. Scanning densitometry (Molecular Dynamics, Sunnyvale, Calif.) was performed to quantify band intensities by volume/area integration. The amount of XIAP, caspase-3, Bcl-2 and Bax in cells was normalized to their respective lane β-actin levels, upon stripping and reprobing.

XIAP mRNA = XIAP mRNA knock-down in H460 cells (real-time RT-PCR / TaqMan); assay type: cell-based, human
Summary of the method: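 NCI-H460 cells transfected with phosphorothioate antisense oligonucleotides via Lipofectamine 2000; RNA isolated after 6 h treatment. XIAP mRNA quantified by one-step TaqMan real-time RT-PCR, comparative Ct (threshold 30× baseline SD), normalized to GAPDH and expressed relative to untreated control cells.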

HIAP1 mRNA [3] = test: HIAP1 mRNA in SF295 cells under cycloheximide induction (TaqMan); assay type: cell-based, human
Experimental: as §1
Controls for this experiment were three oligonucleotides for APO 2: one scrambled sequence (same base composition but random order, 5′-AAGGGCGGCGGAGTGAGAC-3′; SEQ ID NO: 297), one reverse polarity (same base composition, same sequential order but in the opposite direction, 5′-AGAGGACGGAGTCGGAGGC-3′; SEQ ID NO: 298), and one mismatch sequence (containing four base mismatches out of 19 bases, 5′-CGGAGCGTGAGGATGGAGA-3′; SEQ ID NO: 299).

Substance	HIAP1 mRNA levels (in words) (HIAP1 mRNA [1])	decrease of HIAP1 mRNA compared to mock or scrambled survivin control (HIAP1 mRNA [1]) [%]	activity in the HIAP1 protein and mRNA assays (HIAP1 protein)	effect on XIAP protein levels (in words) (XIAP protein)	further results
CAAGTACTCACACCTTGGA (chemistry not given here) [APO 12]	did not cause a stress-induced increase in HIAP1 mRNA	~50	high activity, or had significant activity in both the protein and mRNA assays	–	–
ACCATTCTGGATACCAGAA (chemistry not fully specified) [C5 AS]	–	–	–	did not show sequence specific effects	tumor volumes smaller than vehicle controls [2]: 60%
GGGCTCAAGTAATTCTCTT (chemistry not given here) [APO 15]	did not cause a stress-induced increase in HIAP1 mRNA	~50	high activity, or had significant activity in both the protein and mRNA assays	–	–
TGTCAGTACATGTTGGCTC (antisense; chemistry not fully specified) [Code E12]	–	–	–	significantly reduced XIAP protein levels	XIAP down-regulation H460 RNA (XIAP mRNA): 74%
GAAATTTAGTGGCCAGGAA (chemistry not given here) [APO 8]	did not cause a stress-induced increase in HIAP1 mRNA	~50	high activity, or had significant activity in both the protein and mRNA assays	–	–
5′-AAGGGCGGCGGAGTGAGAC-3′ (listed as DNA, chemistry not given here) [H1 sc apo 2, reference compound]	–	–	–	–	effect on HIAP1 mRNA (and protein) under CHX induction (in words) (HIAP1 mRNA [3]): did not change HIAP1 mRNA levels at all
CCAGTGGTTTGCAAGCATG (chemistry not given here) [APO 7]	did not cause a stress-induced increase in HIAP1 mRNA	~50	high activity, or had significant activity in both the protein and mRNA assays	–	–
mUmGmCmACCCTGGATACCmAmUmUmU (antisense NGCACCCNGGANACCANNN; 2'-O-methyl modifications, chemistry not fully specified) [FG8]	–	–	–	significantly reduced XIAP protein levels	–
TCATTTGAGCCTGGGAGGT (chemistry not given here) [APO 1]	did not cause a stress-induced increase in HIAP1 mRNA	~50	high activity, or had significant activity in both the protein and mRNA assays	–	–
